Experimental data published in US10413559B2, “Method for treating demyelinating disease” (OCHANOMIZU UNIVERSITY, priority 2013, dated 2019).

Assays:
[1] = system: demyelination model mice (0.2% cuprizone); test: Test of motor function impairment using rotarod; format: in vivo, C57BL/6j mice; details: intraperitoneal 1.6 mg/kg/day for 5 weeks, 28 rpm, 300 seconds, FIG. 9, FIG. 10
From the text: 10-week-old male C57BL/6j mice (Tokyo Laboratory Animals Science Co., Ltd., Tokyo, Japan) were fed by the discretionary intake of a mash feed (CLEA Japan, Inc.) that contained 0.2% cuprizone (biscyclohexanone oxalyl hydrazone; Merck KGaA, Darmstadt, Germany) for 5 weeks until demyelination progressed most, so as to produce demyelination model mice involving demyelination caused by oligodendrocyte-specific cell death. The cPA used in the experiment was the same cPA (16:0) as that used in Example 1, and the carba-cPA was 2 ccPA (16:1). The cPA and 2 ccPA were chemically purified (Biochimica et Biophysica Acta, Emi Nozaki 2011), and were then dissolved in a 0.9% saline. […] The locomotion time on the rod was evaluated by measuring the time required for the mice to fall from the rotating rod within a record time of 300 seconds. Moreover, even after the mice had fallen from the rod, they were forced to continue their activity immediately after the falling, so that a total number of the activities from falling from the rod to holding on to the rod for 300 seconds (a number of falls and flips) was measured and evaluated. The data of the test of motor function impairment were analyzed according to a non-parametric method using a Kruskal-Wallis test. All of other data were analyzed according to a one-way ANOVA method using a Newman-Keulis test. […]

[2] = system: demyelination model mice (0.2% cuprizone), corpus callosum; test: Histological staining (Black Gold II) of corpus callosum and evaluation of demyelination (Example 2); format: in vivo, C57BL/6j mice; details: intraperitoneal 1.6 mg/kg/day for 5 weeks, FIG. 3, FIG. 4
From the text: 10-week-old male C57BL/6j mice (Tokyo Laboratory Animals Science Co., Ltd., Tokyo, Japan) were fed by the discretionary intake of a mash feed (CLEA Japan, Inc.) that contained 0.2% cuprizone (biscyclohexanone oxalyl hydrazone; Merck KGaA, Darmstadt, Germany) for 5 weeks until demyelination progressed most, so as to produce demyelination model mice involving demyelination caused by oligodendrocyte-specific cell death. To obtain tissues to be used for histological analysis, a mouse was subjected to perfusion fixation through the heart with 4% paraformaldehyde, and the resulting brain tissues were then excised from the mouse. Thereafter, the tissues were immobilized and infiltrated with 30% sucrose. Thereafter, a frozen tissue block was prepared and was then sliced in a cryostat. The cPA used in the experiment was the same cPA (16:0) as that used in Example 1, and the carba-cPA was 2 ccPA (16:1). The cPA and 2 ccPA were chemically purified (Biochimica et Biophysica Acta, Emi Nozaki 2011), and were then dissolved in a 0.9% saline. […] For the analysis of the level of myelin, using Image J 1.46r software, the stained level in the corpus callosum area was measured, and the demyelination level was then evaluated, while setting the control as 100%.

[3] = system: demyelination model mice (0.2% cuprizone); test: Myelin level by Black Gold staining in cuprizone demyelination model mice (Example 1); format: in vivo, C57BL/6 mice; details: intraperitoneal 40 μg/200 μl saline/day for 5 weeks, FIG. 2
Description: 10-week-old male C57BL/6 mice were fed with a mash feed containing 0.2% cuprizone for five weeks until the most significant demyelination occurred, so as to produce demyelination model mice. cPA and carba-cPA (cPA) powders were each dissolved in a saline, and the obtained solutions were each administered intraperitoneally at a dose of 40 μg/200 μl saline/day to the mice every day for 5 weeks. On the other hand, to negative control mice, a saline (200 μl/day) was intraperitoneally administered in the same manner as described above. The mice, to which the test compound had been administered, were subjected to perfusion fixation with 4% paraformaldehyde, and sections to be used for frozen tissue staining (30 μm) were then prepared in a cryostat (FIG. 1). The level of myelin in each mouse was measured by Black Gold staining, and the demyelination level was then measured based on the stained level (FIG. 2).

[4] = system: GFAP, Iba1, PDGFRa, P2rx7, Nlrp3 gene expression in corpus callosum; test: Genetic analysis using Q-PCR of corpus callosum tissues; format: in vivo, C57BL/6j mice; details: cuprizone mice; intraperitoneal 1.6 mg/kg/day for 5 weeks; FIG. 6-8
From the text: 10-week-old male C57BL/6j mice (Tokyo Laboratory Animals Science Co., Ltd., Tokyo, Japan) were fed by the discretionary intake of a mash feed (CLEA Japan, Inc.) that contained 0.2% cuprizone (biscyclohexanone oxalyl hydrazone; Merck KGaA, Darmstadt, Germany) for 5 weeks until demyelination progressed most, so as to produce demyelination model mice involving demyelination caused by oligodendrocyte-specific cell death.
To obtain mouse corpus callosum tissues to be used for genetic analysis, mouse brain was removed, and the corpus callosum tissues were then collected from the brain. […]
mRNA was extracted from the frozen corpus callosum tissues using ISOGEN (Nippon Gene Co., Ltd., Tokyo, Japan), was then dissolved in RNase free molecular grade water (Takara Bio Inc., Shiga, Japan), and was then preserved at −80° C. […] Gene expression was detected using 7900 Sequence Detection System (Applied Biosystems). […] The gene expression level was calculated by a ΔΔCT method. Data were analyzed by a relative quantification method. A relative change in the gene expression was analyzed, while setting the gene expression level in a control mouse at 100%.

[5] = system: cultured animal cells; details: Murakami-Murofushi et al. 1992; cited from earlier work
[6] = target: T1, DNA polymerase α (Homo sapiens, UniProt P09884); details: Murakami-Murofushi et al. 1992; cited from earlier work
T1 sequence (P09884 1-1462): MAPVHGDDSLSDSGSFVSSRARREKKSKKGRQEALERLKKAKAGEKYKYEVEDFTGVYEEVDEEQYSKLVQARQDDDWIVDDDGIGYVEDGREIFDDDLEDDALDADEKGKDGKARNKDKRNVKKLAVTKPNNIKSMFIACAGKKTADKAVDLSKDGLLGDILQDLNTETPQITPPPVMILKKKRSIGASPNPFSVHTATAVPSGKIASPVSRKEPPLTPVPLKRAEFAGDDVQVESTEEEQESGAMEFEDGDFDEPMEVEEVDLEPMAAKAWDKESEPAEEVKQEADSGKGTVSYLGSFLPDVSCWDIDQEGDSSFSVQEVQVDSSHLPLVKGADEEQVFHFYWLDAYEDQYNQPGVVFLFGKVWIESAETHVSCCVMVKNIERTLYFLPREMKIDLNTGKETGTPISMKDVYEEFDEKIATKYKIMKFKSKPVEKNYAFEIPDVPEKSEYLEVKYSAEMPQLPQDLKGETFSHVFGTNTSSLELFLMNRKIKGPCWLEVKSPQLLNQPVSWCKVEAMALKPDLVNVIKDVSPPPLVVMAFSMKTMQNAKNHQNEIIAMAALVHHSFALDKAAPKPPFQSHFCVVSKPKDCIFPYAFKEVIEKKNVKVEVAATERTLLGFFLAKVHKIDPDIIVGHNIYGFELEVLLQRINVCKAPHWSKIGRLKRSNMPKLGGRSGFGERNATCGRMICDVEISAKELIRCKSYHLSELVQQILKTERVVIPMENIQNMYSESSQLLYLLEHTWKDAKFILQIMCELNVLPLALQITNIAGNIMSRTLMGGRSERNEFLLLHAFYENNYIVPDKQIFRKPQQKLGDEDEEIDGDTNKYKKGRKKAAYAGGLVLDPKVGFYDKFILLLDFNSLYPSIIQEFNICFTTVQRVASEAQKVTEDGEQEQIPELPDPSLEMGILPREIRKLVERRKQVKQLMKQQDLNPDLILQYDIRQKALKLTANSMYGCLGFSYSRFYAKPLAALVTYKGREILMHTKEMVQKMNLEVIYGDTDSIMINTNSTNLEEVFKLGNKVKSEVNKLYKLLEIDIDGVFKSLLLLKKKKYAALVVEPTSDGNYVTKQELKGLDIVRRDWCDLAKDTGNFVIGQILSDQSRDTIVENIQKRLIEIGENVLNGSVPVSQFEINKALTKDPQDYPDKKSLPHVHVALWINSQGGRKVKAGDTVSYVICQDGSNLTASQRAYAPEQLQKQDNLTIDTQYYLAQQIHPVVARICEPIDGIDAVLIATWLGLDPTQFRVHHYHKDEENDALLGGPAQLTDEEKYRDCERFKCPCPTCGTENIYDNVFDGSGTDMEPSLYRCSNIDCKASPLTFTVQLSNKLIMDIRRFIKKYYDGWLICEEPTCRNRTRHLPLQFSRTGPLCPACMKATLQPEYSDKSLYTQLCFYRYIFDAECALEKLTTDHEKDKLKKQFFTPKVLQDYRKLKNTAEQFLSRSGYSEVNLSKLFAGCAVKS

| Compound | motor function impairment (rotarod) [1] | demyelination level in corpus callosum (Black Gold II staining) [2] | level of myelin (Black Gold staining) versus control mouse [3] | nerve inflammation (gene expression by Q-PCR) [4] | proliferation of cultured animal cells [5] | activity of DNA polymerase α [6] |
| --- | --- | --- | --- | --- | --- | --- |
| CCCCCC/C=C\CCCCCCCC(=O)OCC1COP(=O)(O)C1 (stereo not shown) [2 ccPA, palmitoleoyl 2-carba-cPA] | motor function impairment is improved | demyelination is suppressed | higher than the level of myelin in a control mouse | nerve inflammation is suppressed |  |  |
| CCCCCC[C@@H]1C[C@@H]1CCCCCCCC(=O)OC[C@@H]1COP(=O)([O-])O1.[Na+] [PHYLPA] |  |  |  |  | suppressing proliferation of cultured animal cells | suppressing the activity of DNA polymerase α |
| CCCCCCCCC=CCCCCCCCC(=O)OCC1COP(=O)(O)C1 (stereo not shown) [2 ccPA (18:1), oleoyl 2-carba-cPA] |  |  | the same results as in the case of cPA (16:0) and 2 ccPA (16:1) were obtained |  |  |  |
